# Structures can show the parent of a compound that is named as a salt.
# Columns and labels:
# [1] = target: T1, hENT2 (ei transporter) in CEM/N1-7 cells (Homo sapiens, UniProt Q14542); assay: 3H-uridine uptake in CEM/N1-7 cells in the presence of nucleoside transport inhibitors; assay type: cell-based; settings: for effect on uridine transport in CEM/N1-7 cells: FIG. 1B
# T1 construct: expressed in transfected cells; host or cells: CEM/C19 (nucleoside-transport-deficient, EBNA-1-expressing subline of human T-cell leukemia CEM) carrying plasmid pDR2/N1-7
# T1 sequence (Q14542 1-456): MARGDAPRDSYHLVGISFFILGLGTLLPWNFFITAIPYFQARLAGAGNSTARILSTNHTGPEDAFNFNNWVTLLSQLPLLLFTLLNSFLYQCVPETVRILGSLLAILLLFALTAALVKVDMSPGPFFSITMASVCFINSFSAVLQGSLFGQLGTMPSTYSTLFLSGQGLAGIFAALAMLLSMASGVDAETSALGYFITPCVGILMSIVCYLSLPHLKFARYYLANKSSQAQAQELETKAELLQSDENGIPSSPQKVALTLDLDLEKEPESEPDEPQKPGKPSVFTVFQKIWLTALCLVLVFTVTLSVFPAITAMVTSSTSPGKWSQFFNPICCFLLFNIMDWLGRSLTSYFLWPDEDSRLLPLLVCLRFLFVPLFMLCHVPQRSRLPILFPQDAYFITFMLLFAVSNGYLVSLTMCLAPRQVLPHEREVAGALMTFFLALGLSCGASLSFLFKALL
# Description: The values shown are means of duplicate assays and have been corrected for extracellular water space.
# FIGS. 1B-1C depict the uptake of 10 μM ^3H-uridine determined at 22° C. in Na^+buffer using a 7.5 second uptake interval in the presence of nucleoside transport inhibitors. The uptake interval was initiated by simultaneous addition of the label and inhibitory nucleobase, nucleoside or nucleotide. […] This value was subtracted from the total uridine uptake values.
# Removal of sodium from the buffer had no effect on transport in CEM/N1-7 indicating the presence of an equilibrative type transporter. […] (FIG. 1B). As expected from the permeant selectivity observed for ei activity in several cell lines [Plagemann et al., Biochim. Biophys. […] This was recently confirmed by Jarvis and colleagues [Osses et al., Biochem. J., 317:843-848 (1996)] by direct measurements of hypoxanthine in human vascular endothelial cells. […] All these features are consistent with those of an ei transporter, ie., an iENTP.
# [2] = test system: concentrative nucleoside transporters (cif, cit, cib); settings: at concentrations up to 10 μM; cited from earlier work
# [3] = target: T2, human ei transporter in HeLa cells (Homo sapiens, UniProt Q14542); settings: read-out: IC50 for inhibition of uridine transport via ei; cited from earlier work
# T2 construct: the human ei transporter in HeLa cells where the IC50 values; host or cells: HeLa cells (endogenous)
# T2 sequence (Q14542 1-456): T1 sequence (Q14542 1-456)
# [4] = test system: CEM/C19 cells; assay: DUP-785 toxicity and uridine rescue in CEM/C19 cells; assay type: cell-based, human
smiles,measurement,setting,value
O=c1[nH]cnc2nc[nH]c12 [hypoxanthine],effect on uridine influx in CEM/N1-7 cells,"[1]; competing nucleobase, nucleoside or nucleotide added with label, FIG. 1C",inhibited
"OCCN(CCO)c1nc(N2CCCCC2)c2nc(N(CCO)CCO)nc(N3CCCCC3)c2n1 [DIP, bis(diethanolamino)-4,8-dipiperidinopyrimido-[5,4-d]-2,6-pyrimidine]",sensitivity of the concentrative nucleoside transporters,[2],insensitive
same,effect on uridine transport in CEM/N1-7 cells,[1]; 10 μM inhibitor,completely blocked
"O=[N+]([O-])c1ccc(CSc2ncnc3c2ncn3C2OC(CO)C(O)C2O)cc1 [NBMPR, 6-[(4-nitrobenzyl)thio-9-β-D-ribofuranosylpurine]]",sensitivity of the concentrative nucleoside transporters,[2],insensitive
same,IC50,[3],6 µM
same,effect on uridine transport in CEM/N1-7 cells,"[1]; 0.1 μM inhibitor, 10 μM 3H-uridine, 22° C.",had no effect
same,effect on uridine transport in CEM/N1-7 cells,[1]; higher concentrations of inhibitor,Partial inhibition
"Cc1c(-c2ccc(-c3ccccc3F)cc2)nc2ccc(F)cc2c1C(=O)O [DUP-785, 6-fluoro-2(2′--fluoro-1, 1′-biphenyl-4-yl)-3-methyl-4-quinoline carboxylic acid sodium salt]",sensitivity of cells to the de novo uridylate synthesis inhibitor,[4],sensitive
